Measurements from ChEMBL document CHEMBL4354818, “Advances in Discovering Deubiquitinating Enzyme (DUB) Inhibitors” (J Med Chem, 2020).

Assays:
[1] = Inhibition of 26S proteasome (unknown origin) incubated for 2 hrs by proteasome Ub-Rho cleavage assay; design: species or system Homo sapiens
[2] = tested on: HCT-116; assay: Cytotoxicity in human HCT116 cells assessed as reduction in cell viability incubated for 72 hrs by FMCA analysis; format: functional, cell-based; conditions: HCT-116, 72 h
[3] = biological target: T1, STAM-binding protein (Homo sapiens, UniProt O95630); assay: Inhibition of human STAMBP expressed in Sf21 cells pre-incubated for 20 mins before Ubiquitinated NALP7 substrate addition and measured after 1 hr by immunoblotting analysis
T1 sequence (O95630 whole entry): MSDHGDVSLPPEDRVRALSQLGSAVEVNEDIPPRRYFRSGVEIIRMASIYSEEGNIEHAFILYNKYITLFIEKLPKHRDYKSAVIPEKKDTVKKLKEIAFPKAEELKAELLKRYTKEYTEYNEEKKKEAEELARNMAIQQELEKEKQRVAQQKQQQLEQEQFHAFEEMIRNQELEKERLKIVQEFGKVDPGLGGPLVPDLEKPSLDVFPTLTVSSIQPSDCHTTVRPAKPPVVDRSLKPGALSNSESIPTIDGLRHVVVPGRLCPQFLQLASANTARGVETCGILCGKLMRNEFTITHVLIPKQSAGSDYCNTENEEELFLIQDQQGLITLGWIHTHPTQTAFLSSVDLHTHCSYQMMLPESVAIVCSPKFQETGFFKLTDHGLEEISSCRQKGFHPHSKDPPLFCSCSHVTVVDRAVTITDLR

[4] = biological target: T2, Ubiquitin carboxyl-terminal hydrolase 4 (Homo sapiens, UniProt Q13107); assay: Inhibition of USP4 in human U2OS using Ub-TAMRA substrate by Ub-Rhodamine fluorescent intensity assay; format: cell-based
T2 sequence (Q13107 whole entry): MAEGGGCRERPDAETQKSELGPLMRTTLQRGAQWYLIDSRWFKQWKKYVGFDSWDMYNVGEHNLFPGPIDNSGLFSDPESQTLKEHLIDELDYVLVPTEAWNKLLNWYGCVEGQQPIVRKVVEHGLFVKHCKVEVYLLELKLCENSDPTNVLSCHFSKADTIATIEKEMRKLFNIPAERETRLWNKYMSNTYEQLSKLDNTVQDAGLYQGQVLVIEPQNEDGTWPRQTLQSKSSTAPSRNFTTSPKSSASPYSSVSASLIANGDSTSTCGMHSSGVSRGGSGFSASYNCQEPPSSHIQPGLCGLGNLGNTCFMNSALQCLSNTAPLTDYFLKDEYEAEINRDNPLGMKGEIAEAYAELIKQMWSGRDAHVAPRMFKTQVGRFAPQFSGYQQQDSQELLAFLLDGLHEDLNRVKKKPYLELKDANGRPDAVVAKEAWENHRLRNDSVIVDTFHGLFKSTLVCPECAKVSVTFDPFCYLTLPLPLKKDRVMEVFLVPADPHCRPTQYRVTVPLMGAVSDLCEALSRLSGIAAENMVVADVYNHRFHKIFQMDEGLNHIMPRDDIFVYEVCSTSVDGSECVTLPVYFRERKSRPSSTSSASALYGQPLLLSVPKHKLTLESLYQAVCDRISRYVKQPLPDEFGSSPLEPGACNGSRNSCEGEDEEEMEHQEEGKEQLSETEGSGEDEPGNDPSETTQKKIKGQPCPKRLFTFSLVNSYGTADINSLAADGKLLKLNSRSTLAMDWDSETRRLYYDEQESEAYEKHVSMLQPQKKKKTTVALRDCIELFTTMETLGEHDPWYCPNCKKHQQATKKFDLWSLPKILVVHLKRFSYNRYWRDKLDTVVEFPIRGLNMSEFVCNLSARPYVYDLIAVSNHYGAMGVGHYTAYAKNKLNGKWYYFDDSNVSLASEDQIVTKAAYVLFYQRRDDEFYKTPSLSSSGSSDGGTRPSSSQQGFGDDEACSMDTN

[5] = biological target: Ubiquitin carboxyl-terminal hydrolase 7 (Homo sapiens, UniProt Q93009); assay: Inhibition of USP7 in human U2OS using Ub-TAMRA substrate by Ub-Rhodamine fluorescent intensity assay; format: cell-based
Ubiquitin carboxyl-terminal hydrolase 7, sequence (Q93009 whole entry): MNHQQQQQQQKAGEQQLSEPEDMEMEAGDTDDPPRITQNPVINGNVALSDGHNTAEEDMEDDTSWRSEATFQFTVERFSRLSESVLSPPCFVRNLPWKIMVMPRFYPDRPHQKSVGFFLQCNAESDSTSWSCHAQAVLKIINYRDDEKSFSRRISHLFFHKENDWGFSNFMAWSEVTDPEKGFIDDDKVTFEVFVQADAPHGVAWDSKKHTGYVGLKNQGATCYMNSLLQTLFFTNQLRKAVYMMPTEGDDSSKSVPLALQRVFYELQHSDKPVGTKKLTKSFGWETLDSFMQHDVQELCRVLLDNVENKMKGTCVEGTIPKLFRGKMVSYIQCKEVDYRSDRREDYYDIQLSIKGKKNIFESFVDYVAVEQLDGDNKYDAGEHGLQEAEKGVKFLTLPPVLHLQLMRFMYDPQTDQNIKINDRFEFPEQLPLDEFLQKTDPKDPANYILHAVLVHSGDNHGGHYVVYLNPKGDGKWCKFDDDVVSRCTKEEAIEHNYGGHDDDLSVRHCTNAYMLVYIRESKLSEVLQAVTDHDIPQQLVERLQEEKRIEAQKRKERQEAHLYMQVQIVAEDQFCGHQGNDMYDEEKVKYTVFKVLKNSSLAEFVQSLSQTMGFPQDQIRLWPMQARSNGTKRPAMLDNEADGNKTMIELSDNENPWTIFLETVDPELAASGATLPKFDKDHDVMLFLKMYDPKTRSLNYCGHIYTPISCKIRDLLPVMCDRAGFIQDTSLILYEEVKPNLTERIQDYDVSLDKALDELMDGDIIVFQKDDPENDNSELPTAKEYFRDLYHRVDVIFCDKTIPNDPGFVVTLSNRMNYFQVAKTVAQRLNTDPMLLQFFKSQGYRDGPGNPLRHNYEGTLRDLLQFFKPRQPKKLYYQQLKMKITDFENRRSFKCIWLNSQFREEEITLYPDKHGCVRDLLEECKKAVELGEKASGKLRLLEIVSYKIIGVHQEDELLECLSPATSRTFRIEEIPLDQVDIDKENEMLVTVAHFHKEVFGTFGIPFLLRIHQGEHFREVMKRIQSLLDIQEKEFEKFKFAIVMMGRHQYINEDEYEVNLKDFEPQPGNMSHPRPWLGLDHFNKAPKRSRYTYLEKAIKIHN

| IC50 [3] | IC50 [4] | IC50 [5] | Structure (SMILES) | EC50 [1] | EC50 [2] |
| --- | --- | --- | --- | --- | --- |
| – | – | – | C=CC(=O)N1CC/C(=C\c2ccc(F)c([N+](=O)[O-])c2)C(=O)/C(=C/c2ccc(F)c([N+](=O)[O-])c2)C1 | 6400 nM | 580 nM |
| 330 nM | – | – | O=C(CSc1nc2ccc(N3CCOCC3)cc2c(=O)n1CCc1ccccc1)NCc1ccco1 | – | – |
| – | – | – | C=CC(=O)N1C/C(=C\c2ccc([N+](=O)[O-])cc2)C(=O)/C(=C/c2ccc([N+](=O)[O-])cc2)C1 | 6500 nM | 1050 nM |
| – | 50 nM | 44000 nM | C#Cc1ccc(CNC(=O)c2cc(C(=O)CCl)cn2C)cc1 | – | – |
